Experimental findings from patent US5556744A, “Methods and compositions for diagnosing and treating certain HIV infected patients” (The Trustees of the University of Pennsylvania, priority 1994, dated 1996) are described below.

The test system of the assay is maternal HIV+ sera (antibodies). Nature of the assay: RIA / ELISA binding of maternal HIV+ sera to gp120 and gp41 peptides (Example 3). Further details: species or system human. The procedure: Radioimmunoassay (RIA) and enzyme-linked immunosorbent assay (ELISA) were performed by standard methodologies [E. Engvall, Meth. Immunol., 70:419-439 (1980); S. K. Pierce et al, J. Exp. Med., 144:1254-1262 (1976)]. Peptides were dissolved in 0.05M carbonate-bicarbonate buffer (pH 9.6) at a concentration of 10 μg/ml. Fifty μl (500 ng) of the peptides were immobilized in 96 well polyvinylchloride plates (Dynatech Laboratories, Inc.) overnight at 4° C. Plates were washed and non-specific sites were blocked with PBS containing 1% BSA overnight at 4° C.
Dilutions of HIV positive maternal sera were made in blocking buffer at dilutions of 1:50 and 1:500 and incubated in peptide coated plates overnight at 4° C. Plates were washed with PBS and incubated with 75,000 cpm of ^125 I-labelled goat anti-human IgG. The antibody was iodinated by a chloramine T method [W. V. Williams et al, Proc. Natl. Acad. Sci. USA, 85:6488-6492 (1988)]. Plates were washed, dried and counted in a gamma counter to measure specific binding. Normal human serum (i.e., HIV seronegative) was used as a control.
Alternatively, ELISA assays were performed in polystyrene plates (Dynatech Laboratories, Inc) in which 0.05% Tween 20 (Sigma Chemical Co.) was included in the washing, blocking and dilution buffers. The secondary antibody used was goat […] Ig conjugated to horseradish peroxidase (HRP) (Sigma Chemical Co). The substrate used for color development was 3,3',5,5' tetramethyl-benzidine dihydrochloride (TMB) (Sigma Chemical Co). Absorbance of samples was measured in a Dynatech MR5000 (Dynatech Laboratories, Inc.) plate reader and expressed as an optical density at wavelength of 450 nm (OD450).
The following key is used for the designation of specific binding of the maternal sera samples to the peptides: The minus sign, -, is equivalent to the specific OD450 or cpm of sera sample binding to peptide divided by the specific OD450 or cpm of NHS sample binding to peptide, which value is less than 2. The plus sign, +, is equivalent to the specific OD450 or cpm of sera sample binding to peptide divided by the specific OD450 or cpm of NHS sample binding to peptide, which value is between 2 to 3.
Specific binding is defined as the difference between the OD450 or cpm of sera to wells with peptide and the OD450 or cpm of sera to wells without peptide.
Comparisons of number of peptides which bound maternal serum samples were made between the transmission group and the nontransmission group. The data was analyzed using the unpaired student's test. For the determination of differences in the binding of specific peptides between transmission and non-transmission groups, the Spearman's rank-order correlation test was performed.
(In general: ELISA stands for enzyme-linked immunosorbent assay.)

For GYSPLSFQTHPIPR [Peptide 128], the “Binding of maternal HIV+ serum to peptide (sera/NHS ratio)” value (shortened to “Binding … (sera/NHS ratio)”) is on record as “- (specific OD450 or cpm of sera sample binding to peptide divided by the specific OD450 or cpm of NHS sample binding to peptide, which value is less than 2)” (Serum No. 1, Non-Transmission Group); “- (specific OD450 or cpm of sera sample binding to peptide divided by the specific OD450 or cpm of NHS sample binding to peptide, which value is less than 2)” (Serum No. 2, Non-Transmission Group); “- (specific OD450 or cpm of sera sample binding to peptide divided by the specific OD450 or cpm of NHS sample binding to peptide, which value is less than 2)” (Serum No. 3, Non-Transmission Group); “- (specific OD450 or cpm of sera sample binding to peptide divided by the specific OD450 or cpm of NHS sample binding to peptide, which value is less than 2)” (Serum No. 4, Transmission Group); “- (specific OD450 or cpm of sera sample binding to peptide divided by the specific OD450 or cpm of NHS sample binding to peptide, which value is less than 2)” (Serum No. 5, Transmission Group); “- (specific OD450 or cpm of sera sample binding to peptide divided by the specific OD450 or cpm of NHS sample binding to peptide, which value is less than 2)” (Serum No. 6, Non-Transmission Group). In addition, the “Binding … (sera/NHS ratio)” value (Serum No. 7, Non-Transmission Group) is on record as “- (specific OD450 or cpm of sera sample binding to peptide divided by the specific OD450 or cpm of NHS sample binding to peptide, which value is less than 2)”; the “Binding … (sera/NHS ratio)” value (Serum No. 8, Non-Transmission Group) was “- (specific OD450 or cpm of sera sample binding to peptide divided by the specific OD450 or cpm of NHS sample binding to peptide, which value is less than 2)”; the “Binding … (sera/NHS ratio)” value (Serum No. 9, Non-Transmission Group) is “- (specific OD450 or cpm of sera sample binding to peptide divided by the specific OD450 or cpm of NHS sample binding to peptide, which value is less than 2)”; the “Binding … (sera/NHS ratio)” value (Serum No. 10, Transmission Group) was “- (specific OD450 or cpm of sera sample binding to peptide divided by the specific OD450 or cpm of NHS sample binding to peptide, which value is less than 2)”; the “Binding … (sera/NHS ratio)” value (Serum No. 11, Non-Transmission Group) is given as “- (specific OD450 or cpm of sera sample binding to peptide divided by the specific OD450 or cpm of NHS sample binding to peptide, which value is less than 2)”; the “Binding … (sera/NHS ratio)” value (Serum No. 12, Non-Transmission Group) is recorded as “- (specific OD450 or cpm of sera sample binding to peptide divided by the specific OD450 or cpm of NHS sample binding to peptide, which value is less than 2)”. The “Binding … (sera/NHS ratio)” value was “- (specific OD450 or cpm of sera sample binding to peptide divided by the specific OD450 or cpm of NHS sample binding to peptide, which value is less than 2)” (Serum No. 13, Transmission Group); “- (specific OD450 or cpm of sera sample binding to peptide divided by the specific OD450 or cpm of NHS sample binding to peptide, which value is less than 2)” (Serum No. 14, Transmission Group); “- (specific OD450 or cpm of sera sample binding to peptide divided by the specific OD450 or cpm of NHS sample binding to peptide, which value is less than 2)” (Serum No. 15, Transmission Group); “- (specific OD450 or cpm of sera sample binding to peptide divided by the specific OD450 or cpm of NHS sample binding to peptide, which value is less than 2)” (Serum No. 16, Non-Transmission Group); “- (specific OD450 or cpm of sera sample binding to peptide divided by the specific OD450 or cpm of NHS sample binding to peptide, which value is less than 2)” (Serum No. 17, Non-Transmission Group); “- (specific OD450 or cpm of sera sample binding to peptide divided by the specific OD450 or cpm of NHS sample binding to peptide, which value is less than 2)” (Serum No. 18, Non-Transmission Group). Besides, the “Binding … (sera/NHS ratio)” value reads like this: (Serum No. 19, Transmission Group) “- (specific OD450 or cpm of sera sample binding to peptide divided by the specific OD450 or cpm of NHS sample binding to peptide, which value is less than 2)”; (Serum No. 20, Non-Transmission Group) “- (specific OD450 or cpm of sera sample binding to peptide divided by the specific OD450 or cpm of NHS sample binding to peptide, which value is less than 2)”.
